From ChEMBL document CHEMBL3044907, “Sensitivity of Fusarium verticillioides isolates from rice to a novel cyanoacrylate fungicide” (Crop Prot, 2012) come the findings set out here.

Assay type in all cases: functional
Test [1] concerns Fusarium verticillioides. Nature of the test: Fungicidal activity against Fusarium verticilliodes isolate YZ04 in rice seeds harvested from bakane diseased plants assessed as number of seedlings abnormally elongated or exhibiting symptoms of damping-off at 12.5 ug/ml at 30 degC incubated for 72 hr measured after 3 days under greenhouse trials (reference value: 44.2%).
The test system of test [2] is Fusarium verticillioides. Briefly: Fungicidal activity against Fusarium verticilliodes isolate YZ10 in rice seeds harvested from bakane diseased plants assessed as number of seedlings abnormally elongated or exhibiting symptoms of damping-off at 8.33 ug/ml at 30 degC incubated for 72 hr measured after 3 days under greenhouse trials (reference value: 49.2%).
The subject of test [3] is Fusarium verticillioides. Nature of the test: Fungicidal activity against Fusarium verticilliodes isolate YZ07 in rice seeds harvested from bakane diseased plants assessed as number of seedlings abnormally elongated or exhibiting symptoms of damping-off at 25 ug/ml at 30 degC incubated for 72 hr measured after 3 days under greenhouse trials (reference value: 43.2%).
The subject of test [4] is Fusarium verticillioides. Briefly: Fungicidal activity against Fusarium verticilliodes isolate N03 in rice seeds harvested from bakane diseased plants assessed as number of seedlings abnormally elongated or exhibiting symptoms of damping-off at 8.33 ug/ml at 30 degC incubated for 72 hr measured after 3 days under greenhouse trials (reference value: 36.1%).
Test [5] deals with Fusarium verticillioides. Briefly: Fungicidal activity against Fusarium verticilliodes isolate N01 in rice seeds harvested from bakane diseased plants assessed as number of seedlings abnormally elongated or exhibiting symptoms of damping-off at 6.25 ug/ml at 30 degC incubated for 72 hr measured after 3 days under greenhouse trials (reference value: 27.4%).
Test [6] relates to Fusarium verticillioides. Briefly: Fungicidal activity against Fusarium verticilliodes isolate YZ03 in rice seeds harvested from bakane diseased plants assessed as number of seedlings abnormally elongated or exhibiting symptoms of damping-off at 25 ug/ml at 30 degC incubated for 72 hr measured after 3 days under greenhouse trials (reference value: 21.3%).
For test [7], the system named is Fusarium verticillioides. Briefly: Fungicidal activity against Fusarium verticilliodes isolate JS06 in rice seeds harvested from bakane diseased plants assessed as number of seedlings abnormally elongated or exhibiting symptoms of damping-off at 6.25 ug/ml at 30 degC incubated for 72 hr measured after 3 days under greenhouse trials (reference value: 25.2%).
Test [8] relates to Fusarium verticillioides. Briefly: Fungicidal activity against Fusarium verticilliodes isolate YZ22 in rice seeds harvested from bakane diseased plants assessed as number of seedlings abnormally elongated or exhibiting symptoms of damping-off at 8.33 ug/ml at 30 degC incubated for 72 hr measured after 3 days under greenhouse trials (reference value: 22.5%).
Test [9] deals with Fusarium verticillioides. Nature of the test: Fungicidal activity against Fusarium verticilliodes isolate YZ04 in rice seeds harvested from bakane diseased plants assessed as number of seedlings abnormally elongated or exhibiting symptoms of damping-off at 8.33 ug/ml at 30 degC incubated for 72 hr measured after 3 days under greenhouse trials (reference value: 44.2%).
In test [10] the test system is Fusarium verticillioides. Nature of the test: Fungicidal activity against Fusarium verticilliodes isolate JS09 in rice seeds harvested from bakane diseased plants assessed as number of seedlings abnormally elongated or exhibiting symptoms of damping-off at 25 ug/ml at 30 degC incubated for 72 hr measured after 3 days under greenhouse trials (reference value: 32.6%).

SMILES strings stand for the structures.

Regarding `CCOC(=O)/C(C#N)=C(/N)c1ccccc1`, the Activity with Fusarium verticillioides [1] is given as 0%; in the test on Fusarium verticillioides [2], 0%; in the test on Fusarium verticillioides [3], 0%; in the test on Fusarium verticillioides [4] it was 0%; in the test on Fusarium verticillioides [5], 0.8%; in the test with Fusarium verticillioides [6] it was 0%. Further, the Activity in the test with Fusarium verticillioides [7] worked out at 1.7%; in the test with Fusarium verticillioides [8], 0.5%; with Fusarium verticillioides [9], 0%; in the test on Fusarium verticillioides [10] it was 0%.
